{"source": "paper PMC7250496", "about": "(Journal of medicinal chemistry, 2020)", "origin": "cited, not measured here", "key": {"mMC5R": {"target": "mMC5R (Mus musculus, UniProt P41149)", "sequence (P41149 whole entry)": "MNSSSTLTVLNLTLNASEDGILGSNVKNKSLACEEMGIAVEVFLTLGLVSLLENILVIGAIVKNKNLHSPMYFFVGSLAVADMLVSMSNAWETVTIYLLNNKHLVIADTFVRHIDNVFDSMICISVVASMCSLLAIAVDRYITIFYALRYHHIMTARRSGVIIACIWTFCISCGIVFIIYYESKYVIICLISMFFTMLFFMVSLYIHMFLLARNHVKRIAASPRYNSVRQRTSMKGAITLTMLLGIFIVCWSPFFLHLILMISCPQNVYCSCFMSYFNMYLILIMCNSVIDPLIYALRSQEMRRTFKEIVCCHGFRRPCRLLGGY", "conditions": "previously reported ref 80"}, "mMC3R": {"target": "mMC3R (Mus musculus, UniProt P33033)", "sequence (P33033 whole entry)": "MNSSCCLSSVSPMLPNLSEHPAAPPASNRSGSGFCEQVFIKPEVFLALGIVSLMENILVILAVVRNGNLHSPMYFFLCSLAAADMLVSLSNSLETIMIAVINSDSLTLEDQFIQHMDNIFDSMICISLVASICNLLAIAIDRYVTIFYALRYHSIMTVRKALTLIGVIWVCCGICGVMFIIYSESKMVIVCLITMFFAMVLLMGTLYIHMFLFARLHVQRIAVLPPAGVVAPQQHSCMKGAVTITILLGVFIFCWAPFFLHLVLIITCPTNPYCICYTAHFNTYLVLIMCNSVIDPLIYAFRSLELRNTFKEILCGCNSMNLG", "conditions": "previously reported ref 80"}}}
{"smiles": "C[C@@H]1NC(=O)[C@H](CN)NC(=O)[C@H](Cc2ccccc2)NC(=O)[C@H](Cc2ccccc2)NC(=O)[C@H](CCCNC(=N)N)NC(=O)[C@@H]2CCCN2C(=O)[C@H]2CCCN2C(=O)[C@H](Cc2ccccc2)NC1=O", "note": "[Compound 2, c[Pro-Arg-Phe-Phe-Dap-Ala-Phe-DPro]]", "values": [{"measurement": "mMC5R Inverse Agonist, percent decrease from basal", "setting": "mMC5R", "result": "Inverse Agonist −15%"}, {"measurement": "mMC3R pA2", "setting": "mMC3R; antagonist, Schild analysis, agonist NDP-MSH", "result": "6.5 ± 0.09"}, {"measurement": "EC50", "setting": "mMC3R; read-out: mMC3R EC50, agonist", "result": "> 100", "unit": "µM"}]}
